Read-outs that look alike come from different tables or passages of the source.
Tests used:
[1] = General; type: cell-based; conditions: African green monkey, Vero cells (monkey kidney epithelial cells)
[2] = tested on: T. brucei rhodesiense strain IL1501; experiment: Antitrypanosomal assay; type: cell-based, Trypanosoma brucei rhodesiense; conditions: IC50 of MDBK/IC50 of trypanosome
[3] = tested on: Trypanosoma spp.; experiment: Antitrypanosomal assay, several species; type: cell-based; conditions: read-out: IC50 against several Trypanosoma spp.
[4] = Solubility observed during sample preparation and screening; type: physicochemical; conditions: aqueous screening medium
[5] = tested on: L. donovani strain 9515 promastigotes; experiment: Antipromastigote resazurin assay; type: cell-based, Leishmania donovani; conditions: for AG (activity gain): IC50 (1)/IC50 (compd.), L. donovani promastigotes; for IC50: Leishmania donovani, read-out: Antipromastigote activity IC50; for SI1: SI1 = IC50 Vero/IC50 promastigote, L. donovani
[6] = Animal cytotoxicity, CCK-8 assay; type: cell-based, bovine; conditions: bovine, MDBK (Madin-Darby bovine kidney) cells
[7] = tested on: L. major strain NIH S promastigotes; experiment: Antipromastigote resazurin assay; type: cell-based, Leishmania major; conditions: for AG (activity gain): IC50 (1)/IC50 (compd.), L. major promastigotes; for IC50: Leishmania major, read-out: Antipromastigote activity IC50; for SI4: SI4 = IC50 Vero/IC50 promastigote, L. major
[8] = tested on: T. brucei brucei strain GUTat3.1; experiment: Antitrypanosomal assay; type: cell-based, Trypanosoma brucei brucei; conditions: for IC50: read-out: Antitrypomastigote activity IC50 ± SD Tbb GuTat3.1; for SI Tbb GuTat3.1: IC50 of MDBK/IC50 of trypanosome
[9] = tested on: T. equiperdum strain IVM-t1; experiment: Antitrypanosomal assay; type: cell-based, Trypanosoma equiperdum; conditions: for SI Teq IVM-t1: IC50 of MDBK/IC50 of trypanosome
[10] = Host cell toxicity, resazurin assay; type: cell-based; conditions: human
[11] = tested on: T. brucei gambiense strain IL1922; experiment: Antitrypanosomal assay; type: cell-based, Trypanosoma brucei gambiense; conditions: IC50 of MDBK/IC50 of trypanosome
[12] = tested on: T. congolense strain IL3000; experiment: Antitrypanosomal assay; type: cell-based, Trypanosoma congolense; conditions: IC50 of MDBK/IC50 of trypanosome
[13] = tested on: L. major strain NIH S intramacrophage amastigotes; experiment: Intramacrophage antileishmanial resazurin assay; type: cell-based, Leishmania major; conditions: L. major; for SI5: SI5 = IC50 Vero/static IC50 amastigote; for SI6: SI6 = IC50 Vero/cidal IC50 amastigote; for SpI3: SpI3 = IC50 promastigote/static IC50 amastigote; for SpI4: SpI4 = IC50 promastigote/cidal IC50 amastigote
[14] = tested on: MDBK cells; experiment: Animal cytotoxicity, CCK-8 assay; type: cell-based, bovine; conditions: read-out: Cytotoxicity IC50 ± SD MDBK; MDBK cells; three biological replicates

Row | Compound | IC50 [1] [µM] | SI Tbr IL1501 [2] | IC50 [3] [µM] | Solubility in aqueous screening medium [4] | AG (activity gain) [5] | IC50 [5] [µM] | SI1 [5] | IC50 [6] [µM] | AG (activity gain) [7] | IC50 [7] [µM] | SI4 [7] | IC50 ([8]; Trypanosoma brucei) [µM] | SI Teq IVM-t1 [9] | IC50 [10] [µM] | SI Tbg IL1922 [11] | SI Tc IL3000 [12] | SI5 [13] | SI6 [13] | SpI3 [13] | SI Tbb GuTat3.1 [8] | other results
1 | C#CCn1cc(/C=C2\SC(=S)NC2=O)c2cc([N+](=O)[O-])ccc21 [3b, (Z)-5-{[5-Nitro-1-(prop-2-yn-1-yl)-1 H-indol-3-yl]methylene}-2-thioxothiazolidin-4-one] | 13.5 ± 0.8 | 4 | 20 to 40 | poor solubility | 0.7 | 68.7 ± 6.55 | 0.2 | > 312 | 0.9 | 56.8 ± 5.57 | 0.2 | > 78 |  |  |  |  |  |  |  |  | 
2 | O=C1NC(=S)S/C1=C\c1c[nH]c2ccc([N+](=O)[O-])cc12 [3a, (Z)-5-[(5-Nitro-1 H-indol-3-yl)methylene]-2-thioxothiazolidin-4-one] | 15.2 ± 0.32 | 0 |  | poor solubility |  | > 100 |  | 31.6 ± 1.67 |  | > 100 |  | 33.7 ± 5.01 | 1 | > 100 | 1 | 1 | 25 | 27 | 166 | 1 | SpI4 [13]: 175
3 | CC(=O)NCC(=O)O.CC(=O)NCC(=O)O.N=C(N)c1ccc(N=NNc2ccc(C(=N)N)cc2)cc1 [Diminazine aceturate, diminazene aceturate, reference compound] |  | 9091 |  |  |  |  |  |  |  |  |  |  | 16340 |  | 33333 | 4000 |  |  |  | 5263 | IC50 ([9]; read-out: Antitrypomastigote activity IC50 ± SD Teq IVM-t1, three biological replicates): 0.022 ± 0.002 µM; IC50 [14]: > 355 µM; IC50 ([8]; three biological replicates): 0.068 µM
4 | O=Cc1cn(Cc2ccc(F)cc2)c2ccc([N+](=O)[O-])cc12 [2e, 1-(4-Fluorobenzyl)-5-nitro-1 H-indole-3-carbaldehyde] | > 100 | 4 | 20 to 40 |  | 0.5 |  | 1 | > 335 | 0.5 |  | 1 | 15 ± 8.48 |  | > 100 | 15 |  | 8 | 8 | 7 | 22 | SpI4 [13]: 8
